Reference: the supplement of paper PMC6045584
± gives the standard deviation of the averaged measurements.

Tests used:
VORINOSTAT = compound: O=C(CCCCCCC(=O)Nc1ccccc1)NO [VORINOSTAT]; assay: surviving fraction relative to DMSO-only wells; higher = less growth inhibition; settings: exposure time: 5 days
How it was run: (§1)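 Tumour cell lines were grown to log phase and seeded at 250–500 cells per well in 384-well plates. They were exposed continuously to inhibitors at 0.5, 1, 5, 10, 50, 100, 500 and 1000 nM for five days, beginning 24 hours after seeding. Surviving fraction is CellTiter-Glo luminescence normalised to the median of DMSO-only wells.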

[1] = compound: COc1ccc(-c2cc3c(C)nc(N)nc3n([C@H]3CC[C@H](OCCO)CC3)c2=O)cn1; assay: as above; settings: exposure time: 5 days
How it was run: as §1

Row | Test System | surviving fraction (VORINOSTAT; 0.5 nM) | surviving fraction (VORINOSTAT; 1 nM) | surviving fraction (VORINOSTAT; 5 nM) | surviving fraction (VORINOSTAT; 10 nM) | surviving fraction (VORINOSTAT; 50 nM) | surviving fraction (VORINOSTAT; 100 nM) | surviving fraction (VORINOSTAT; 500 nM) | surviving fraction (VORINOSTAT; 1000 nM) | surviving fraction ([1]; 0.5 nM) | surviving fraction ([1]; 1 nM) | surviving fraction ([1]; 5 nM) | surviving fraction ([1]; 10 nM) | surviving fraction ([1]; 50 nM) | surviving fraction ([1]; 100 nM) | surviving fraction ([1]; 500 nM) | surviving fraction ([1]; 1000 nM)
1 | BT549 BREAST | 1.12 ± 0.083 | 1.14 ± 0.11 | 1.15 ± 0.029 | 1.22 ± 0.051 | 1.12 ± 0.17 | 1.11 ± 0.068 | 0.773 ± 0.073 | 0.534 ± 0.034 | 1.09 ± 0.18 | 1.02 ± 0.12 | 0.952 ± 0.095 | 0.939 ± 0.14 | 0.569 ± 0.085 | 0.381 ± 0.035 | 0.12 ± 0.013 | 0.0733 ± 0.0021
2 | 93VU HEADNECK | 0.966 ± 0.02 | 1.06 ± 0.045 | 1.09 ± 0.087 | 1.08 ± 0.077 | 1.18 ± 0.093 | 1.1 ± 0.07 | 0.947 ± 0.035 | 0.731 ± 0.13 | 0.94 ± 0.015 | 0.995 ± 0.14 | 0.923 ± 0.075 | 0.979 ± 0.044 | 0.582 ± 0.14 | 0.351 ± 0.068 | 0.0697 ± 0.0051 | 0.047 ± 0.0046
3 | NCIH441 LUNG | 1.12 ± 0.041 | 1.02 ± 0.089 | 1.06 ± 0.033 | 1.04 ± 0.038 | 1.14 ± 0.02 | 0.959 ± 0.086 | 0.939 ± 0.024 | 0.546 ± 0.045 | 1.03 ± 0.068 | 1.03 ± 0.071 | 1.06 ± 0.064 | 0.966 ± 0.058 | 0.886 ± 0.048 | 0.789 ± 0.028 | 0.425 ± 0.021 | 0.412 ± 0.015
4 | SUM159 BREAST | 0.975 ± 0.087 | 0.932 ± 0.16 | 0.929 ± 0.16 | 0.928 ± 0.15 | 0.923 ± 0.24 | 0.882 ± 0.28 | 0.926 ± 0.17 | 0.77 ± 0.29 | 1.1 ± 0.16 | 1.12 ± 0.18 | 1.1 ± 0.17 | 1.1 ± 0.17 | 1.05 ± 0.074 | 0.839 ± 0.036 | 0.181 ± 0.014 | 0.119 ± 0.006
5 | SJSA1 BONE | 0.793 ± 0.037 | 0.946 ± 0.057 | 0.844 ± 0.049 | 0.953 ± 0.067 | 0.844 ± 0.021 | 0.973 ± 0.059 | 0.544 ± 0.035 | 0.672 ± 0.03 | 1.04 ± 0.035 | 0.976 ± 0.023 | 0.989 ± 0.058 | 0.941 ± 0.027 | 0.743 ± 0.059 | 0.671 ± 0.028 | 0.2 ± 0.011 | 0.116 ± 0.0015
6 | MDAMB231 BREAST | 0.995 ± 0.015 | 1 ± 0.017 | 0.993 ± 0.03 | 0.983 ± 0.025 | 1.01 ± 0.028 | 0.971 ± 0.042 | 0.805 ± 0.02 | 0.358 ± 0.0067 | 0.98 ± 0.011 | 0.985 ± 0.021 | 0.949 ± 0.016 | 0.902 ± 0.018 | 0.645 ± 0.0077 | 0.495 ± 0.013 | 0.182 ± 0.0094 | 0.145 ± 0.0081
7 | CME SYNOVIAL | 1.25 ± 0.12 | 1.15 ± 0.087 | 1.21 ± 0.061 | 0.882 ± 0.044 | 1.28 ± 0.1 | 1.08 ± 0.043 | 0.607 ± 0.089 | 0.383 ± 0.027 | 1.01 ± 0.027 | 1.09 ± 0.2 | 1.04 ± 0.042 | 1.12 ± 0.045 | 0.743 ± 0.083 | 0.681 ± 0.051 | 0.252 ± 0.022 | 0.28 ± 0.019
8 | T47D BREAST | 0.967 ± 0.026 | 1.01 ± 0.02 | 1.02 ± 0.042 | 1.013 ± 0.006 | 1.08 ± 0.057 | 1.05 ± 0.043 | 0.785 ± 0.02 | 0.449 ± 0.028 | 0.993 ± 0.043 | 0.975 ± 0.021 | 0.959 ± 0.02 | 0.913 ± 0.013 | 0.638 ± 0.018 | 0.414 ± 0.022 | 0.196 ± 0.0079 | 0.148 ± 0.0018
9 | MDAMB436 BREAST | 0.83 ± 0.045 | 0.905 ± 0.045 | 0.854 ± 0.056 | 0.911 ± 0.086 | 0.937 ± 0.081 | 0.835 ± 0.055 | 0.766 ± 0.072 | 0.582 ± 0.066 | 0.881 ± 0.036 | 0.856 ± 0.055 | 0.8 ± 0.031 | 0.75 ± 0.051 | 0.582 ± 0.027 | 0.432 ± 0.023 | 0.265 ± 0.016 | 0.2398 ± 0.0015
10 | CAL51 BREAST | 0.956 ± 0.013 | 0.951 ± 0.056 | 1.02 ± 0.011 | 0.906 ± 0.021 | 1.02 ± 0.024 | 0.97 ± 0.078 | 0.65 ± 0.022 | 0.403 ± 0.01 | 0.988 ± 0.062 | 0.901 ± 0.047 | 0.943 ± 0.064 | 0.91 ± 0.053 | 0.731 ± 0.023 | 0.442 ± 0.035 | 0.123 ± 0.0027 | 0.0447 ± 0.0022
11 | HOS BONE | 0.957 ± 0.017 | 1 ± 0.022 | 0.9643 ± 0.0076 | 0.989 ± 0.017 | 1.05 ± 0.019 | 1.07 ± 0.029 | 0.948 ± 0.034 | 0.967 ± 0.021 | 0.992 ± 0.0078 | 0.983 ± 0.019 | 0.986 ± 0.012 | 0.906 ± 0.014 | 0.781 ± 0.021 | 0.618 ± 0.016 | 0.231 ± 0.012 | 0.178 ± 0.0092
12 | 143B BONE | 1.01 ± 0.0028 | 1.02 ± 0.011 | 1.053 ± 0.0014 | 1.01 ± 0.031 | 1.01 ± 0.03 | 1.02 ± 0.042 | 0.858 ± 0.11 | 0.835 ± 0.026 | 0.995 ± 0.0057 | 0.992 ± 0.014 | 1.01 ± 0.039 | 0.966 ± 0.025 | 0.946 ± 0.011 | 0.896 ± 0.02 | 0.391 ± 0.016 | 0.267 ± 0.013
13 | CAL72 BONE | 1.02 ± 0.056 | 1.09 ± 0.022 | 1.08 ± 0.02 | 1.07 ± 0.026 | 1.08 ± 0.029 | 1.07 ± 0.018 | 1.05 ± 0.022 | 1.06 ± 0.042 | 1.09 ± 0.055 | 1.06 ± 0.043 | 1.04 ± 0.043 | 1.05 ± 0.027 | 0.993 ± 0.038 | 0.805 ± 0.045 | 0.235 ± 0.014 | 0.214 ± 0.031
14 | SUM149.B1*.S BREAST | 1.05 ± 0.026 | 0.971 ± 0.049 | 1.02 ± 0.047 | 0.845 ± 0.031 | 1.06 ± 0.038 | 1.05 ± 0.052 | 0.82 ± 0.038 | 0.523 ± 0.034 | 0.985 ± 0.03 | 1.02 ± 0.059 | 1.02 ± 0.032 | 0.995 ± 0.037 | 0.924 ± 0.011 | 0.823 ± 0.03 | 0.475 ± 0.014 | 0.339 ± 0.017
15 | CHLA90 AUTONOMIC GANGLIA | 0.971 ± 0.026 | 1.08 ± 0.046 | 0.976 ± 0.013 | 0.839 ± 0.047 | 1.02 ± 0.052 | 0.982 ± 0.063 | 0.977 ± 0.022 | 0.844 ± 0.053 | 1.05 ± 0.018 | 1 ± 0.061 | 0.951 ± 0.077 | 0.86 ± 0.04 | 0.753 ± 0.015 | 0.586 ± 0.045 | 0.206 ± 0.014 | 0.102 ± 0.0045
16 | YAMATO SYNOVIAL | 1.31 ± 0.099 | 0.905 ± 0.031 | 1.19 ± 0.027 | 0.742 ± 0.072 | 1.28 ± 0.068 | 1.16 ± 0.016 | 0.82 ± 0.026 | 0.533 ± 0.038 | 1.15 ± 0.087 | 1.09 ± 0.066 | 1.01 ± 0.073 | 0.952 ± 0.057 | 0.469 ± 0.062 | 0.355 ± 0.0076 | 0.189 ± 0.014 | 0.272 ± 0.012
17 | LM7 BONE | 1.01 ± 0.1 | 0.999 ± 0.041 | 1.09 ± 0.059 | 1.03 ± 0.08 | 1.11 ± 0.12 | 1.1 ± 0.04 | 0.934 ± 0.12 | 0.8 ± 0.032 | 0.996 ± 0.022 | 0.896 ± 0.031 | 0.947 ± 0.019 | 0.906 ± 0.057 | 0.691 ± 0.023 | 0.578 ± 0.022 | 0.205 ± 0.012 | 0.0677 ± 0.005
18 | HCT15 LARGE INTESTINE | 0.9863 ± 0.0055 | 0.938 ± 0.023 | 0.963 ± 0.044 | 0.867 ± 0.067 | 1.05 ± 0.028 | 1.06 ± 0.03 | 0.98 ± 0.019 | 0.674 ± 0.056 | 0.981 ± 0.029 | 1.04 ± 0.051 | 1.01 ± 0.016 | 0.975 ± 0.021 | 0.76 ± 0.016 | 0.543 ± 0.04 | 0.16 ± 0.013 | 0.091 ± 0.0046
19 | SG27 HEADNECK | 1.22 ± 0.15 | 1.05 ± 0.089 | 1.01 ± 0.13 | 1.08 ± 0.048 | 0.989 ± 0.1 | 0.955 ± 0.088 | 0.824 ± 0.097 | 0.755 ± 0.048 | 1.03 ± 0.11 | 1.02 ± 0.12 | 0.945 ± 0.042 | 0.935 ± 0.11 | 0.834 ± 0.21 | 0.703 ± 0.048 | 0.424 ± 0.0087 | 0.357 ± 0.039
20 | MG63 BONE | 1.03 ± 0.021 | 0.98033 ± 0.00058 | 1.058 ± 0.0097 | 1.02 ± 0.038 | 1.081 ± 0.0029 | 1.121 ± 0.011 | 1.02 ± 0.019 | 0.8407 ± 0.0078 | 0.984 ± 0.0072 | 0.97 ± 0.04 | 0.9233 ± 0.009 | 0.833 ± 0.035 | 0.539 ± 0.021 | 0.348 ± 0.011 | 0.137 ± 0.0046 | 0.0953 ± 0.0011
21 | SCC36 HEADNECK | 1.01 ± 0.084 | 0.977 ± 0.073 | 1.1 ± 0.024 | 1.06 ± 0.082 | 1.12 ± 0.1 | 1.14 ± 0.12 | 0.677 ± 0.038 | 0.589 ± 0.054 | 1.11 ± 0.012 | 0.988 ± 0.031 | 0.914 ± 0.016 | 1.11 ± 0.056 | 0.807 ± 0.017 | 0.84 ± 0.086 | 0.167 ± 0.024 | 0.143 ± 0.024
